Reference: patent publication US20180339043A1, “MODIFIED ANTIBODIES” (Janux Therapeutics, Inc., priority 2017, published 2018)
Read-outs that look alike come from different tables or passages of the source. Bridge positions count the residues as written; N and C are the ends. Peptide text beside a SMILES is read from it.

Experiments:
[1] = tested on: anti-mouse CTLA-4 antibody (clone 9D9); assay: Peptide antibody dissociation ELISA (CTLA-4 antibody); type: binding; conditions: for pH responsiveness: FIG. 11A-11C legend, unoptimized peptide candidates
Method: (§1) To begin, peptides were immobilized on neutravidin coated and blocked wells. […] After binding at 4 degrees the plates were washed extensively as before. Next the peptides were incubated with either neutral or acidic pH buffers for approximately 30 minutes and then washed again. The specifically peptide bound antibodies were detected by either anti-mouse Fc or anti-mouse kappa chain HRP conjugated antibodies using standard TMB-based chromogenic ELISA procedures. The effects of pH upon affinity were determined by standard EC50 analysis of each of the distinct pH dilution series binding curves and comparison of their respective EC50 values.

PD-L1 antibody = assay: Peptide antibody dissociation ELISA (PD-L1 antibody); type: binding; conditions: for pH 5.4: pH 7.2 EC 50 ratio: pH 5.4 vs pH 7.2; for pH 6.0: pH 7.2 EC 50 ratio: pH 6.0 vs pH 7.2
Method: as §1

[2] = pH 5.4, read-out: EC50 [M] pH 5.4
[3] = pH 6.0, read-out: EC50 [M] pH 6.0
[4] = pH 7.2, read-out: EC50 [M] pH 7.2

EC50 (PD-L1 antibody; [2])	pH 5.4: pH 7.2 EC 50 ratio (PD-L1 antibody)	EC50 (PD-L1 antibody; [3])	pH 6.0: pH 7.2 EC 50 ratio (PD-L1 antibody)	EC50 (PD-L1 antibody; [4])	EC50 [M] pH 7.2 ([1]; pH 7.2)	EC50 [M] pH 7.2 (PD-L1 antibody; pH 7.2)	Molecule	pH responsiveness [1]
							GGCFEEHEQLVFQTHC [Peptide 5]	significant pH responsiveness
1.3e-09 M	6.6	5.6e-10 M	2.8	2e-10 M			CC(C)C[C@@H]1NC(=O)CNC(=O)[C@H](CO)NC(=O)[C@H](CCCCN)NC(=O)[C@H](CC(N)=O)NC(=O)[C@H](Cc2c[nH]cn2)NC(=O)[C@@H](NC(=O)CNC(=O)CN)CSSC[C@@H](C(=O)O)NC(=O)[C@H](Cc2ccc(O)cc2)NC(=O)[C@H](Cc2c[nH]cn2)NC(=O)[C@H](Cc2ccc(O)cc2)NC(=O)[C@H](Cc2ccccc2)NC1=O [Peptide 24] (H-GGCHNKSGLFYHYC-OH; disulfide 3-14)	
		9e-10 M					CC(C)C[C@H](NC(=O)[C@H](CCC(=O)O)NC(=O)[C@H](CCC(=O)O)NC(=O)[C@H](Cc1ccc(O)cc1)NC(=O)[C@H](Cc1ccccc1)NC(=O)[C@H](Cc1ccc(O)cc1)NC(=O)[C@H](CC(C)C)NC(=O)[C@@H]1CCCN1C(=O)[C@H](CO)NC(=O)[C@@H](NC(=O)[C@@H](N)CCC(N)=O)C(C)C)C(=O)N[C@@H](C)C(=O)O [Peptide 27]	
3.9e-09 M	12.9	1.3e-09 M	4.3	3e-10 M	Inactive		CSCC[C@@H]1NC(=O)[C@H](CC(=O)O)NC(=O)[C@H](C(C)C)NC(=O)[C@@H](NC(=O)[C@H](Cc2c[nH]cn2)NC(=O)CNC(=O)CN)CSSC[C@@H](C(=O)N[C@@H](CCC(N)=O)C(=O)O)NC(=O)[C@H]([C@@H](C)O)NC(=O)[C@H](CCC(N)=O)NC(=O)[C@H](CCC(N)=O)NC(=O)[C@H](Cc2ccc(O)cc2)NC(=O)[C@H](Cc2ccccc2)NC(=O)[C@H](CC(=O)O)NC(=O)[C@H](C(C)C)NC1=O [Peptide 23] (H-GGHCVDMVDFYQQTCQ-OH; disulfide 4-15)	
8.4e-10 M	6.7	2.1e-10 M	1.7	1.3e-10 M			CC[C@H](C)[C@H](NC(=O)[C@H](Cc1c[nH]cn1)NC(=O)[C@H](Cc1ccc(O)cc1)NC(=O)[C@@H](NC(=O)[C@H](CO)NC(=O)[C@@H]1CCCN1C(=O)[C@H](Cc1ccc(O)cc1)NC(=O)[C@H](Cc1ccccc1)NC(=O)[C@H](CC(C)C)NC(=O)[C@@H](N)CCC(N)=O)[C@@H](C)O)C(=O)N[C@H](C(=O)N[C@@H](CC(=O)O)C(=O)O)[C@@H](C)CC [Peptide 20] (H-QLFYPSTYHIID-OH)	
						Inactive	GGADCLLHDWDSACQI [Peptide 10, control in the PD-L1 antibody test]	significant pH responsiveness
3.5e-10 M	7.8	7e-11 M	1.5	4.5e-11 M			CSCC[C@H](NC(=O)CNC(=O)CN)C(=O)N[C@H]1CSSC[C@@H](C(=O)N[C@@H](CCC(N)=O)C(=O)O)NC(=O)[C@H](Cc2c[nH]c3ccccc23)NC(=O)[C@H](CC(N)=O)NC(=O)[C@H](CC(C)C)NC(=O)[C@H](CC(N)=O)NC(=O)[C@H](CO)NC(=O)[C@H](Cc2ccc(O)cc2)NC(=O)[C@H](Cc2ccccc2)NC(=O)[C@H](CC(C)C)NC(=O)[C@H](CCC(=O)O)NC(=O)[C@H](Cc2c[nH]cn2)NC1=O [Peptide 22] (H-GGMCHELFYSNLNWCQ-OH; disulfide 4-15)	
1.5e-09 M	6.5	4.9e-10 M	2.1	2.3e-10 M			CC[C@H](C)[C@@H]1NC(=O)[C@H](CC(=O)O)NC(=O)[C@H](C(C)C)NC(=O)[C@H](CCC(N)=O)NC(=O)[C@@H]2CCCN2C(=O)[C@H](CCC(=O)O)NC(=O)[C@H](Cc2ccc(O)cc2)NC(=O)[C@H](Cc2ccccc2)NC(=O)[C@H]([C@@H](C)O)NC(=O)[C@H](CO)NC(=O)[C@@H](NC(=O)[C@H](CC(C)C)NC(=O)CNC(=O)CN)CSSC[C@@H](C(=O)N[C@@H](Cc2ccc(O)cc2)C(=O)O)NC1=O [Peptide 29] (H-GGLCSTFYEPQVDICY-OH; disulfide 4-15)	
1.5e-09 M		3.6e-10 M					CC(C)[C@@H]1NC(=O)[C@@H](NC(=O)CNC(=O)CN)CSSC[C@@H](C(=O)O)NC(=O)[C@H](CC(=O)O)NC(=O)[C@@H]2CCCN2C(=O)[C@H](CCCNC(=N)N)NC(=O)[C@H](CCC(N)=O)NC(=O)[C@H](Cc2c[nH]cn2)NC(=O)[C@H](Cc2c[nH]cn2)NC(=O)[C@H](Cc2ccccc2)NC(=O)[C@H](Cc2ccccc2)NC(=O)[C@H](Cc2c[nH]cn2)NC1=O [Peptide 31]	
							GGCILPGQHESQAIAC [Peptide 6]	significant pH responsiveness
